Results taken from patent US20220273005A1, “METHOD OF INDUCING BACTERIAL HEAT SENSITIVITY” (THE STATE OF ISRAEL, MINISTRY OF AGRICULTURE & RURAL …, priority 2019, published 2022).

How the values were obtained:
[1] = system: Bacillus subtilis wt; conditions: wt strain with Mg2+ ions; previously shown; cited from earlier work
[2] = system: Bacillus subtilis wt; conditions: wt strain with Mg2+ ions; previously shown; cited from earlier work; remark: listed apart in the source
[3] = system: B. subtilis (WT 3610); assay: Combined effect of CL and surfactin on pellicle formation, NAO staining; format: cell-based, Bacillus subtilis; conditions: high concentration (50 μM), about 20 h, FIG. 6
Protocol: (§1) For visualization of bundle type biofilm a 1 ml sample was taken and washed twice with sterile water. Next Nonyl Acridine Orange (NAO) (Invitrogen A1372) was added to a final concentration of 100 nM for a 20 minutes incubation at room temperature. Next 3-7 μl from each sample were loaded on a microscopy glass slide. The samples were visualized using a fluorescent microscope in a transmitted light microscope using differential interference contrast (DIC) and 426-450 nm laser for CFP excitation (for visualization of YC189) or 457 nm-487 nm laser for GFP excitation (for visualization of NAO stained samples) (Nikon Eclipse Ti2).
B. subtilis (WT 3610) was grown for 5 h at 37° C., 150 rpm according to the conditions described above. Then 2 μl of bacteria were added to 1 ml LBG accompanied by solutions with different concentrations of CL and surfactin. After about 20 h the samples were stained with NAO (according to the protocol described herein), which was added to the unwashed samples. Finally, the samples were washed after the staining and the pellicle formation was tested.

[4] = system: Bacillus subtilis YC189 (PtapA-cfp) bundle biofilm; assay: Bundle biofilm formation and tapA promoter (PtapA-cfp) activity with CL added, fluorescence microscopy; format: cell-based
Protocol: (§2) Three kinds of biofilms were tested—colony type, pellicle and bundles. For colony type—bacteria were grown in LB medium for 5h and then 3-5 μl of the culture were spotted on an LB-GM (1% tryptone, 0.5% yeast extract, 0.5% NaCl, 1% glycerol, 0.1 mM MnSO4 and 2% agar) (Difco) or modified MRS (MMRS—MRS pH 7) (Man, Rogosa & Sharpe) (Hy-labs) plates. Once the spotted drops were soaked into the medium, the plates were incubated upside down at 30° C. for 72 h. For pellicle biofilm formation 24-well plates were used. Bacteria were grown in LB medium for 5 h and then the culture was diluted 1:1000 into MMRS. Next, plates were incubated at 30° C., 20 rpm for 48 h. For the experiments with supplementation of CL, 0-100 μM CL dissolved in chloroform was added (final concentration of chloroform was 0.2%). For bundle type biofilm, a starter culture was prepared using a single bacterial colony inoculated into 5 ml of LB medium overnight at 30° C., 150 rpm. Next, bacteria were diluted 1:100 into fresh MMRS at 37° C., 25 rpm and after 5-7 h a 1 ml sample was taken and washed twice with sterile water. For longer incubation times, a starter culture was prepared using a single bacterial colony inoculated into 3 ml of LB medium for 5 h at 37° C., 150 rpm. Next, bacteria were diluted 1:100 into fresh MMRS at 23° C., 25 rpm overnight. The samples were visualized by fluorescence microscopy.
as §1

[5] = system: Bacillus subtilis NCIB 3610 pellicle biofilm; assay: Pellicle biofilm formation with CL added to the medium; format: cell-based; conditions: FIG. 5A
Protocol: as §2, with “Next, plates were incubated at 30° C., 20 rpm for 48 h.” left out

[6] = system: Bacillus subtilis ΔclsA and ΔclsB mutants; assay: Rescue of the biofilm phenotype of the cls mutants by added CL; format: cell-based; conditions: 10-fold serial dilutions of CL in the medium; data not shown
Protocol: as §2, with “microscopy. […]” for “microscopy.”

[7] = CL 10 μM and 100 μM, after 12 h, YC189, FIG. 5B

Row | Molecule | sensitivity to heat treatments [1] | biofilm formation [2] | string-like structures connecting the bacteria [3] | biofilm (bundle) formation [4, 7] | stimulation of the tapA operon (PtapA-cfp) [4, 7] | biofilm formation ([4]; CL 10 μM, after 18 h, YC189, FIG. 5C) | biofilm (bundle) formation ([4]; high concentrations of CL, after 18 h, YC189, FIG. 5C) | biofilm formation (pellicle) ([5]; CL 50 μM, 18 h post treatment) | pellicle biofilm formation ([5]; CL 5-50 μM, after 18 hours) | rescue of the mutants' biofilm phenotype [6]
1 | [Mg+2] [Mg^2+ ions] | more sensitive to heat treatments | biofilm is not formed | – | – | – | – | – | – | – | –
2 | cardiolipin [CL] | – | – | string-like structures connecting the bacteria have been observed | biofilm is not formed | not stimulated | substantially reduced | bundles start to form | reduced biofilm formation | delay in pellicle biofilm formation | not able to rescue
